Here are results for 13 molecules from patent US10669242B2 (priority 2016, dated 2020).

For orientation: IC50 means the concentration that gives 50% inhibition.

Test [1] has as its target T1, recombinant glucosyltransferase domain of C. difficile Toxin B/TcdB (Clostridioides difficile, UniProt P18177).
T1 construct: 6-His (C); purchased R&D Systems 6246-GT
The experiment in a line: biochemical.

In test [2] the target is T2, C. difficile full-length toxin TcdA (Clostridioides difficile, UniProt P16154).
T2 construct: C. difficile full-length toxins (TcdA or TcdB); purchased Enzo Life Sciences BML-G140-0050
Put plainly: cell-based.

The target in test [3] is T3, C. difficile full-length toxin TcdB (Clostridioides difficile, UniProt P18177).
T3 construct: C. difficile full-length toxins (TcdA or TcdB); purchased EMD Millipore 616377
The experiment in a line: cell-based.

For test [4], the system named is C. difficile toxin (TcdA and TcdB, ~1:1). The experiment in a line: Murine C. difficile toxin model (intrarectal toxin). The conditions noted are these: murine C. difficile toxin model, PO, 50 mg/kg body weight. The test is classed as in vivo, C57BL/6 mice. How it is done:
In the following studies, we established a murine C. difficile toxin model with modifications from a published murine model (Hirota, Iablokov et al. 2012). Details of the murine C. difficile toxin model are described in the “Experimental Protocols” (below). C. difficile toxins were isolated from a culture of the C. difficile strain VPI 10463. C. difficile toxins consisted of TcdA and TcdB (˜1:1 ratio of TcdA:TcdB). Respective TcdA and TcdB concentrations were determined by enzyme-linked immunosorbant assay (ELISA). In our mouse model, C. difficile toxins were administered intrarectally to evaluate their pathological effects.
We administered C. difficile toxin (12.5 μg/mouse) via intrarectal instillation into female C57BL/6 mice. Four (4) animals were used in each group. Four (4) hours after the toxin administration, the mice were euthanized. The colons were excised from the animals and washed with phosphate buffered saline (PBS). The colon lengths were measured. Excised colon tissues were stored at −70° C. for chemical analysis of interleukin-1β(IL-1β) and myeloperosidase (MPO) in tissues, which are the hallmarks of colon inflammation. Excised colon tissues were also stored at room temperature in 10% neutral buffered formalin for histopathological analysis.
Using the murine C. difficile toxin model (Example 61), we evaluated the efficacy of Example 6a in reducing the C. difficile toxin activity. In this study, the isolated toxin (12.5 μg) was diluted in 50 μl of PBS and mixed with a 50 μl suspension of Example 6a (10 mg/mL) in 1% carboxymethyl cellulose and 0.5% Tween 80 to achieve a fixed dose of […] of Example 6a (0.5 mg in mice weighing ˜20 g) and C. difficile toxin (12.5 μg). Three (3) animals were used in each group.
In this study, we evaluated the efficacy of Example 6a via different routes of administration (i.e., oral (PO) and intraperitoneal (IP) administrations) in the same murine C. difficile toxin model (Example 61). In both PO and IP dosages, Example 6a was prepared as 5 mg/mL solutions in 20% PEG-400, 0.4% carboxymethyl cellulose and 0.2% Tween 80. Example 6a was administered at a final dose of 50 mg/kg body weight. Three (3) mice were used in each group (i.e., vehicle (control), PO and IP).
Using the murine C. difficile toxin model (Example 63), we further tested the efficacy of four (4) additional compounds (i.e., Example 6a, Example 5ae, Example 4cl, and Example 5al) via PO administration. All of the compounds were dosed orally at 50 mg/kg body weight. In three separate studies a total of three (3) to fourteen (14) mice were used in each group.
We evaluated the efficacy of additional compounds in reducing C. difficile toxicity. Using the PO administration (Example 63), we further tested 30 compounds (Table 34). All of the compounds were dosed orally at 50 mg/kg body weight. Three (3) to fourteen (14) animals were used for each compound. % inhibition was determined by the following formula: […]
An overnight culture of C. difficile strain VPI 10463 (American Type Culture Collection) was grown at 37° C. in Brain-Heart Infusion (BHI) broth using the GasPak EZ Anaerobe Pouch System (Becton Dickinson). 2 mL of the culture was added to 28 mL of phosphate buffered saline (PBS) in a gamma-irradiated, 10,000 molecular weight cut-off, 30-70 ml Slide-A-Lyzer G2 dialysis cassette (Pierce). This cassette was submerged in 1 L of BHI broth in a 2 L beaker and incubated under anaerobic conditions for 5 days at 37° C. The culture was then transferred to a 50 mL conical tube and the cassette was washed with 10 mL of PBS. The combined culture and wash were centrifuged at 2,000 g for 20 minutes to pellet the bacteria and the supernatant was filtered through a 0.2 μm syringe filter. The filtrate was then applied to a 20 mL 150 K molecular weight cut-off concentration column (Pierce) and centrifuged at 2,000 g for 15 minutes. Concentrated supernatant was stored at 4° C. […]

T3 sequence (P18177 2-2366 limits assumed): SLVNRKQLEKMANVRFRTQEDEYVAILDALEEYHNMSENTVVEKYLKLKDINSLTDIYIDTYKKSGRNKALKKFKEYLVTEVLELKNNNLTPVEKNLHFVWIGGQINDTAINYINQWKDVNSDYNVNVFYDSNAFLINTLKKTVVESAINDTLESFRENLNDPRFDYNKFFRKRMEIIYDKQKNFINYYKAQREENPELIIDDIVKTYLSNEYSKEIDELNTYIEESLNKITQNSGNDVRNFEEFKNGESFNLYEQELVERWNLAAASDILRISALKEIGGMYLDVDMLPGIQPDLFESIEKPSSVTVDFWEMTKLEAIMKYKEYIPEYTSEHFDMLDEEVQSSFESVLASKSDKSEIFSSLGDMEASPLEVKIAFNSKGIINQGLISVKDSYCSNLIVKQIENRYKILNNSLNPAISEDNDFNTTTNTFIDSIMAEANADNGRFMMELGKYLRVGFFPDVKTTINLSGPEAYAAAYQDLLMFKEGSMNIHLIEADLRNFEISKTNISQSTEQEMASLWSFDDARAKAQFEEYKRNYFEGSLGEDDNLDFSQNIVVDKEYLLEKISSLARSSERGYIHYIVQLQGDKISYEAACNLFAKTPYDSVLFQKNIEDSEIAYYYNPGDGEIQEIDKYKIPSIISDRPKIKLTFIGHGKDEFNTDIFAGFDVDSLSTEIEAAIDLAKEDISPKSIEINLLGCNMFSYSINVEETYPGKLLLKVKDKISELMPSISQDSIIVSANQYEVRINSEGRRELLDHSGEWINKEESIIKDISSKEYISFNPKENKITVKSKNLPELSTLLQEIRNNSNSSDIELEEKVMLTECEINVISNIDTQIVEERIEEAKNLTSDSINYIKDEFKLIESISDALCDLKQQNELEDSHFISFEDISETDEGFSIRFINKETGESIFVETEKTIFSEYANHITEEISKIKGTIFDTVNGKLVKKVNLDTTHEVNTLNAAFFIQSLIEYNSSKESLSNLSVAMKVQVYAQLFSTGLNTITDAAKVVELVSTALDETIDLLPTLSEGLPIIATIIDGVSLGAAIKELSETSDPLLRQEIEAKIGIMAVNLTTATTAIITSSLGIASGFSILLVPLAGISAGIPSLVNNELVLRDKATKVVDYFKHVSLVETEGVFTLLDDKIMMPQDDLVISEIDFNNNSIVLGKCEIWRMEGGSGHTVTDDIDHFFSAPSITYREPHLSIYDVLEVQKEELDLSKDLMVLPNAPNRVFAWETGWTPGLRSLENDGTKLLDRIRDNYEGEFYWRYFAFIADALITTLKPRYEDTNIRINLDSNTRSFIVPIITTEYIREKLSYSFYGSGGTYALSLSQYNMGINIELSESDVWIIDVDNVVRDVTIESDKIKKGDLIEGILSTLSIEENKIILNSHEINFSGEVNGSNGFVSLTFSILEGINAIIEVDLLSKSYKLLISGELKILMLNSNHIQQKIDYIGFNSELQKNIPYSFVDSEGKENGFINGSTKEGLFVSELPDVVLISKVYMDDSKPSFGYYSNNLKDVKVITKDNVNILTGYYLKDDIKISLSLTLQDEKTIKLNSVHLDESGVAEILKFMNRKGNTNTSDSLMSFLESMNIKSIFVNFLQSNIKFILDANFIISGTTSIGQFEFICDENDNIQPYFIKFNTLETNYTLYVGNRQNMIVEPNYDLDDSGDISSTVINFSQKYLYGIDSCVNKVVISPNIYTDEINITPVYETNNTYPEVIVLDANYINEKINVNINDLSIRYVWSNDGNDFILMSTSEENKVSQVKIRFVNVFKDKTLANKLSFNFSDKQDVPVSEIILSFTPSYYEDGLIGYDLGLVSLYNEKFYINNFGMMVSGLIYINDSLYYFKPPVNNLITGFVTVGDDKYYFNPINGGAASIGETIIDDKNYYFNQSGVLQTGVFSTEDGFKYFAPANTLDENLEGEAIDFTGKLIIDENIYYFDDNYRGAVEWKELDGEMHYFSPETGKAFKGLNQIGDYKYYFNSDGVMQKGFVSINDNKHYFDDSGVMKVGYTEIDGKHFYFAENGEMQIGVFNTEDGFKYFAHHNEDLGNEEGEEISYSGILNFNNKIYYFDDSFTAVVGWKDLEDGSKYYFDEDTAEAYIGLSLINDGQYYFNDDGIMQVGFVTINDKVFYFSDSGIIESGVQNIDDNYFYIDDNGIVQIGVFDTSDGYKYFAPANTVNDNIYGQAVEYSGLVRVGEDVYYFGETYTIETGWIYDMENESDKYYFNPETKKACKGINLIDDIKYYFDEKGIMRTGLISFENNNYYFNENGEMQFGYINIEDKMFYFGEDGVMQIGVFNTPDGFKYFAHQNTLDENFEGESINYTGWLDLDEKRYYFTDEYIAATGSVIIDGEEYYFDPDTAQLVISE
T2 sequence (P16154 whole entry, looked up): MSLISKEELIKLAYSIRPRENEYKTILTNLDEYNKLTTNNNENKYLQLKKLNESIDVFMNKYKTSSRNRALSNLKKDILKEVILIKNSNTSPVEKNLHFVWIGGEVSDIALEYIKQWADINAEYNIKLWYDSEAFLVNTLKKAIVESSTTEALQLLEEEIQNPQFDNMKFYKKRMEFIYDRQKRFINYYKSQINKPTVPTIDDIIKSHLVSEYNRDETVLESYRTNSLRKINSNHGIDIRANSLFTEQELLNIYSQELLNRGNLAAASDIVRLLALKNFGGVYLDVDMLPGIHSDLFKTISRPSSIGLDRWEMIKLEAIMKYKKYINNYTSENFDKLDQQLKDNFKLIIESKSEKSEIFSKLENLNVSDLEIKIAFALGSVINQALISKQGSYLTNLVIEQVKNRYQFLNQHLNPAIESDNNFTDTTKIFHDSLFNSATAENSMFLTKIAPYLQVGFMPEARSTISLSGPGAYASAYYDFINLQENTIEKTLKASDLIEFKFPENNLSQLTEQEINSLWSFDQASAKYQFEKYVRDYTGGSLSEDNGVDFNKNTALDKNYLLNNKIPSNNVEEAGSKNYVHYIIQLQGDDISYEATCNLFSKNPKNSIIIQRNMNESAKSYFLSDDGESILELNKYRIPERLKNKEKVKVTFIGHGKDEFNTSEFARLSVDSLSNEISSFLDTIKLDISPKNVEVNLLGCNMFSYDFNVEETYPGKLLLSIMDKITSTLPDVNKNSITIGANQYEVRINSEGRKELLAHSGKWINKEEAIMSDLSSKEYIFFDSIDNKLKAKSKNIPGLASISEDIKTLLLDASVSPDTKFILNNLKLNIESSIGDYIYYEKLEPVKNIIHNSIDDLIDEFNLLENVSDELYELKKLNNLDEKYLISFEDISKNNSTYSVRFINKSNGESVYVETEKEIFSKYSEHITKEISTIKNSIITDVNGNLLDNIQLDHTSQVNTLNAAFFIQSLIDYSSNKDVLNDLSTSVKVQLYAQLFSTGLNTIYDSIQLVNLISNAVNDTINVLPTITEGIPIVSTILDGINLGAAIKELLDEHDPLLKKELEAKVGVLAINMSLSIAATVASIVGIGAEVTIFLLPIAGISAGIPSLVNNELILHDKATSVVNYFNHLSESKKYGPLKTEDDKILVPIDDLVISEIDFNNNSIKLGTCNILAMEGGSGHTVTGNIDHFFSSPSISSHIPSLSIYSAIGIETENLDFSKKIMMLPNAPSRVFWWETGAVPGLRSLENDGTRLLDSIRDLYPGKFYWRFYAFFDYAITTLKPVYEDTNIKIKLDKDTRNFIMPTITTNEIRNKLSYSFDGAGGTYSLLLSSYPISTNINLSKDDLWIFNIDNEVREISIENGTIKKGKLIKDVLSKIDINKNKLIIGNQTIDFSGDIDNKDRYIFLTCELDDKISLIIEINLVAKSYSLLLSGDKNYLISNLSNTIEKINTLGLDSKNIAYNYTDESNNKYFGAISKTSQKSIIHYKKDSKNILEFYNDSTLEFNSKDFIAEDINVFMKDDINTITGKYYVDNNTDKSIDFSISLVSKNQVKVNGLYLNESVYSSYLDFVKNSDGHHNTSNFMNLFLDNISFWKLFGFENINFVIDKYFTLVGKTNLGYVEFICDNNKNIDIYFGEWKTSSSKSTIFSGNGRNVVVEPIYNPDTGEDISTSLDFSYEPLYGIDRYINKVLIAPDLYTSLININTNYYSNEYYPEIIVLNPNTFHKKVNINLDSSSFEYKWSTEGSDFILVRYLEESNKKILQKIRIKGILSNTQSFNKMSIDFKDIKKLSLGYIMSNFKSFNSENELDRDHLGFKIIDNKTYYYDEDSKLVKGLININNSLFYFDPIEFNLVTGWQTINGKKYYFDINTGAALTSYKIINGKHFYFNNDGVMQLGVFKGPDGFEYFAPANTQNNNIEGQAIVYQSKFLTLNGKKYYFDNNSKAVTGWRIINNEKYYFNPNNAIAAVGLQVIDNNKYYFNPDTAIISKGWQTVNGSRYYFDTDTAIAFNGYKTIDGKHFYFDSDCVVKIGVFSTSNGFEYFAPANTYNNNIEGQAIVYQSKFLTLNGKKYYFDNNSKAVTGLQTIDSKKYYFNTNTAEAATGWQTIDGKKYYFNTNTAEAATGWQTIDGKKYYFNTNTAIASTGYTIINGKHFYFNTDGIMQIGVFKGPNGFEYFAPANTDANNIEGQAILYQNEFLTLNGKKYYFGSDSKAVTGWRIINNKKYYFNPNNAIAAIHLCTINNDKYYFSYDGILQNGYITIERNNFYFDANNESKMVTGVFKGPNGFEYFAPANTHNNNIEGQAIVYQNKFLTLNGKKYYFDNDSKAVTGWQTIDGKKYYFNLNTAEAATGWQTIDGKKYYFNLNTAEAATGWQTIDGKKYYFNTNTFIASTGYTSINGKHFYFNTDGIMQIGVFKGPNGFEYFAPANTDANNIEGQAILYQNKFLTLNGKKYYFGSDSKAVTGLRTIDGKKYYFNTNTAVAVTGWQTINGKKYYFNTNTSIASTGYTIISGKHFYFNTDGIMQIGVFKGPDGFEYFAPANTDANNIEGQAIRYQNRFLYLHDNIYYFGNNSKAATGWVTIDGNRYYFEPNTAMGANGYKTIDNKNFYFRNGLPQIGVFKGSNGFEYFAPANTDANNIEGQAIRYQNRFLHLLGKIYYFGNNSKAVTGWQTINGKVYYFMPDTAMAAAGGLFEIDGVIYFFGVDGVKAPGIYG

Turning to `COc1cnc(NC(=O)c2ccc(CN3C(=O)c4ccc(Cl)cc4NC(=O)[C@H]3Cc3ccccn3)cc2OC)nc1` [Example 5an, (R)-4-((8-Chloro-2,5-dioxo-3-(pyridin-2-ylmethyl)-2,3-dihydro-1H-benzo[e][1,4]diazepin-4(5H)-yl)methyl)-2-methoxy-N-(5-methoxypyrimidin-2-yl)benzamide], the IC50 in test [1] is less than 100 nM; in test [2], 1000 to 10000 nM; in test [3] it was 100 to 999 nM. Besides, the “IL-1β (% Inhibition)” value in test [4] was found to be 87%. The “MPO (% Inhibition)” value in test [4] worked out at 63%.

Turning to `COc1cc(CN2C(=O)c3ccc(Cl)cc3NC(=O)[C@H]2Cc2ccccn2)ccc1C(=O)Nc1ncc(C)cn1` [Example 5am, (R)-4-((8-Chloro-2,5-dioxo-3-(pyridin-2-ylmethyl)-2,3-dihydro-1H-benzo[e][1,4]diazepin-4(5H)-yl)methyl)-2-methoxy-N-(5-methylpyrimidin-2-yl)benzamide], the IC50 in test [1] is less than 100 nM; in test [2] it was 1000 to 10000 nM; in test [3], 100 to 999 nM. Moreover, the “IL-1β (% Inhibition)” value in test [4] is listed as 54%. The “MPO (% Inhibition)” value in test [4] stood at 31%.

For the molecule `Cc1ccc(NC(=O)c2ccc(CN3C(=O)c4ccc(Cl)cc4NC(=O)[C@H]3Cc3ccccn3)cc2Cl)nc1` [Example 4cb, (R)-2-Chloro-4-((8-chloro-2,5-dioxo-3-(pyridin-2-ylmethyl)-2,3-dihydro-1H-benzo[e][1,4]diazepin-4(5H)-yl)methyl)-N-(5-methylpyridin-2-yl)benzamide], the IC50 in test [1] was less than 100 nM; in test [2], 100 to 999 nM; in test [3], less than 100 nM. Moreover, in test [4], the “IL-1β (% Inhibition)” value is on record as 74%. For the same molecule, the “MPO (% Inhibition)” value in test [4] was 99%.

For `Cc1cnc2c(c1)CCN2C(=O)c1ccc(CN2C(=O)c3ccc(Cl)cc3NC(=O)[C@H]2Cc2ccccn2)cc1Cl` [Example 4ad, (R)-8-Chloro-4-(3-chloro-4-(5-methyl-2,3-dihydro-1H-pyrrolo[2,3-b]pyridine-1-carbonyl)benzyl)-3-(pyridin-2-ylmethyl)-3,4-dihydro-1H-benzo[e][1,4]diazepine-2,5-dione], the results for the IC50 in test [1], in test [2] and in test [3] were less than 100 nM, 100 to 999 nM and less than 100 nM, respectively. The “IL-1β (% Inhibition)” value in test [4] is on record as 80%. For the same molecule, the “MPO (% Inhibition)” value in test [4] stood at 100%.

On to `COc1cnc(NC(=O)c2ccc(CN3C(=O)c4ccc(Cl)cc4NC(=O)[C@H]3Cc3ccccn3)cc2OC)cn1` [Example 5ak, (R)-4-((8-Chloro-2,5-dioxo-3-(pyridin-2-ylmethyl)-2,3-dihydro-1H-benzo[e][1,4]diazepin-4(5H)-yl)methyl)-2-methoxy-N-(5-methoxypyrazin-2-yl)benzamide], for which the half-maximal inhibitory concentration (IC50) in test [1] is less than 100 nM; in test [2], 1000 to 10000 nM; in test [3], 100 to 999 nM. In addition, in test [4], the “IL-1β (% Inhibition)” value is given as 71%. The “MPO (% Inhibition)” value in test [4] was found to be 73%.

Consider `Cc1ccc(NC(=O)c2ccc(CN3C(=O)c4ccc(Cl)cc4NC(=O)[C@H]3Cc3ccccn3)cc2C)nc1` [Example 4ck, (R)-4-((8-Chloro-2,5-dioxo-3-(pyridin-2-ylmethyl)-2,3-dihydro-1H-benzo[e][1,4]diazepin-4(5H)-yl)methyl)-2-methyl-N-(5-methylpyridin-2-yl)benzamide], for which the concentration for half-maximal inhibition (IC50) in test [1] is less than 100 nM; in test [2], 100 to 999 nM; in test [3], less than 100 nM. The “IL-1β (% Inhibition)” value in test [4] worked out at 82%. Also, the “MPO (% Inhibition)” value in test [4] is recorded as 79%.

Take `Cn1cc(C(=O)[C@H]2CC[C@H](CN3C(=O)c4ccc(Cl)cc4NC(=O)[C@H]3Cc3ccccn3)CC2)c2ncccc21` [Example 33b, (R)-8-Chloro-4-(((1r,4R)-4-(1-methyl-1H-pyrrolo[3,2-b]pyridine-3-carbonyl)cyclohexyl)methyl)-3-(pyridin-2-ylmethyl)-3,4-dihydro-1H-benzo[e][1,4]diazepine-2,5-dione]: the half-inhibitory concentration (IC50) was less than 100 nM in test [1], 1000 to 10000 nM in test [2] and 100 to 999 nM in test [3]. In test [4], the “IL-1β (% Inhibition)” value is listed as 84%. For the same molecule, in test [4], the “MPO (% Inhibition)” value is 41%.

Take `COc1cc(CN2C(=O)c3ccc(Cl)cc3NC(=O)[C@H]2Cc2ccccn2)ccc1C(=O)Nc1ccc(C)cn1` [Example 4cm, (R)-4-((8-Chloro-2,5-dioxo-3-(pyridin-2-ylmethyl)-2,3-dihydro-1H-benzo[e][1,4]diazepin-4(5H)-yl)methyl)-2-methoxy-N-(5-methylpyridin-2-yl)benzamide]: the 50% inhibitory concentration (IC50) was less than 100 nM in test [1], greater than 10000 nM in test [2] and 100 to 999 nM in test [3]. Moreover, the “IL-1β (% Inhibition)” value in test [4] was 49%. Moreover, the “MPO (% Inhibition)” value in test [4] is 35%.

Turning to `COc1cnc(NC(=O)c2ccc(CN3C(=O)c4ccc(Cl)cc4NC(=O)[C@H]3Cc3ccccn3)cc2C)nc1` [Example 5ai, (R)-4-((8-Chloro-2,5-dioxo-3-(pyridin-2-ylmethyl)-2,3-dihydro-1H-benzo[e][1,4]diazepin-4(5H)-yl)methyl)-N-(5-methoxypyrimidin-2-yl)-2-methylbenzamide], the 50% inhibitory concentration (IC50) is less than 100 nM in test [1], 100 to 999 nM in test [2] and less than 100 nM in test [3]. Also, in test [4], the “IL-1β (% Inhibition)” value was 96%. For the same molecule, the “MPO (% Inhibition)” value in test [4] is 79%.

For `O=C(c1ccc(CN2C(=O)c3ccc(Cl)cc3NC(=O)[C@H]2Cc2ccccn2)cc1)c1cccn2ccnc12` [Example 34a, (R)-8-Chloro-4-(4-(imidazo[1,2-α]pyridine-8-carbonyl)benzyl)-3-(pyridin-2-ylmethyl)-3,4-dihydro-1H-benzo[e][1,4]diazepine-2,5-dione], the IC50 in test [1] was less than 100 nM; in test [2], greater than 10000 nM; in test [3], 100 to 999 nM.

For `O=C(c1ccc(CN2C(=O)c3ccc(Cl)cc3NC(=O)[C@H]2Cc2ccccn2)cc1)c1ccccn1` [Example 11a, (R)-8-Chloro-4-(4-picolinoylbenzyl)-3-(pyridin-2-ylmethyl)-3,4-dihydro-1H-benzo[e][1,4]diazepine-2,5-dione], the IC50 in test [1] is less than 100 nM; in test [2], greater than 10000 nM; in test [3], 1000 to 10000 nM. Moreover, the “IL-1β (% Inhibition)” value in test [4] amounted to 22%. Moreover, in test [4], the “MPO (% Inhibition)” value was 0%.

Consider `Cc1cnc(NC(=O)c2ccc(CN3C(=O)c4ccc(Cl)cc4NC(=O)[C@H]3Cc3ccccn3)cc2Cl)cn1` [Example 5aa, (R)-2-Chloro-4-((8-chloro-2,5-dioxo-3-(pyridin-2-ylmethyl)-2,3-dihydro-1H-benzo[e][1,4]diazepin-4(5H)-yl)methyl)-N-(5-methylpyrazin-2-yl)benzamide], for which the IC50 is less than 100 nM in test [1], 1000 to 10000 nM in test [2] and 100 to 999 nM in test [3]. Further, in test [4], the “IL-1β (% Inhibition)” value is reported as 63%. Also, in test [4], the “MPO (% Inhibition)” value is 50%.

Turning to `O=C(c1ccc(CN2C(=O)c3ccc(Cl)cc3NC(=O)[C@H]2Cc2ccccn2)cc1)c1c[nH]c2cccnc12` [Example 32a, 4-(4-(1H-Pyrrolo[3,2-b]pyridine-3-carbonyl)benzyl)-8-chloro-3-(pyridin-2-ylmethyl)-3,4-dihydro-1H-benzo[e][1,4]diazepine-2,5-dione], in test [1], the 50% inhibitory concentration (IC50) was less than 100 nM. In test [4], the “IL-1β (% Inhibition)” value is recorded as 72% and the “MPO (% Inhibition)” value amounted to 76%.
